Measured values from ChEMBL document CHEMBL4828717, “Synthetic cajaninstilbene acid derivatives eradicate methicillin-resistant Staphylococcus aureus persisters and biofilms” (Eur J Med Chem, 2021).

Legend:
[1] = tested on: Staphylococcus aureus; assay: Antibacterial activity against methicillin resistant Staphylococcus aureus ATCC48073 assessed as reduction in microbial growth after 16 to 18 hrs by microbroth dilution method; format: functional; conditions: time 16-18 hrs
[2] = tested on: Staphylococcus aureus; assay: Antibacterial activity against Staphylococcus aureus ATCC 25923 assessed as reduction in microbial growth after 16 to 18 hrs by microbroth dilution method; format: functional; conditions: time 16-18 hrs
[3] = tested on: Staphylococcus aureus; assay: Antibacterial activity against methicillin resistant Staphylococcus aureus ATCC49025 assessed as reduction in microbial growth after 16 to 18 hrs by microbroth dilution method; format: functional; conditions: time 16-18 hrs
[4] = tested on: Pseudomonas aeruginosa; assay: Antibacterial activity against Pseudomonas aeruginosa ATCC27853 assessed as reduction in microbial growth after 16 to 18 hrs by microbroth dilution method; format: functional; conditions: time 16-18 hrs
[5] = tested on: Staphylococcus aureus; assay: Antibacterial activity against methicillin resistant Staphylococcus aureus ATCC48706 assessed as reduction in microbial growth after 16 to 18 hrs by microbroth dilution method; format: functional; conditions: time 16-18 hrs
[6] = tested on: L02; assay: Cytotoxicity against human L02 cells assessed as cell viability at 10 ug/ml measured after 24 hrs by MTT assay; format: cell-based; conditions: l02, 24 h, dose 10 µg/ml
[7] = tested on: Escherichia coli; assay: Antibacterial activity against Escherichia coli ATCC25922 assessed as reduction in microbial growth after 16 to 18 hrs by microbroth dilution method; format: functional; conditions: ATCC 25922, time 16-18 hrs
[8] = tested on: Staphylococcus aureus; assay: Antibacterial activity against methicillin resistant Staphylococcus aureus ATCC515992 assessed as reduction in microbial growth after 16 to 18 hrs by microbroth dilution method; format: functional; conditions: time 16-18 hrs
[9] = tested on: RAW264.7; assay: Cytotoxicity against mouse RAW264.7 cells assessed as cell viability at 10 ug/ml measured after 24 hrs by MTT assay; format: cell-based; conditions: raw264.7, 24 h, dose 10 µg/ml
[10] = tested on: Staphylococcus aureus; assay: Antibacterial activity against methicillin resistant Staphylococcus aureus ATCC49800 assessed as reduction in microbial growth after 16 to 18 hrs by microbroth dilution method; format: functional; conditions: time 16-18 hrs
[11] = tested on: Staphylococcus aureus; assay: Antibacterial activity against methicillin resistant Staphylococcus aureus ATCC513045 assessed as reduction in microbial growth after 16 to 18 hrs by microbroth dilution method; format: functional; conditions: time 16-18 hrs
[12] = tested on: Staphylococcus aureus; assay: Antibacterial activity against methicillin resistant Staphylococcus aureus ATCC 43300 assessed as reduction in microbial growth after 16 to 18 hrs by microbroth dilution method; format: functional; conditions: time 16-18 hrs
[13] = tested on: Enterococcus faecalis; assay: Antibacterial activity against Enterococcus faecalis ATCC29212 assessed as reduction in microbial growth after 16 to 18 hrs by microbroth dilution method; format: functional; conditions: ATCC 29212, time 16-18 hrs
[14] = tested on: Staphylococcus aureus; assay: Antibacterial activity against methicillin resistant Staphylococcus aureus ATCC48966 assessed as reduction in microbial growth after 16 to 18 hrs by microbroth dilution method; format: functional; conditions: time 16-18 hrs
[15] = tested on: Staphylococcus aureus; assay: Antibacterial activity against methicillin resistant Staphylococcus aureus ATCC 52056 assessed as reduction in microbial growth after 16 to 18 hrs by microbroth dilution method; format: functional; conditions: time 16-18 hrs
[16] = tested on: Staphylococcus aureus; assay: Antibacterial activity against methicillin resistant Staphylococcus aureus ATCC 62202 assessed as reduction in microbial growth after 16 to 18 hrs by microbroth dilution method; format: functional; conditions: time 16-18 hrs
[17] = tested on: Staphylococcus aureus; assay: Antibacterial activity against methicillin resistant Staphylococcus aureus ATCC49008 assessed as reduction in microbial growth after 16 to 18 hrs by microbroth dilution method; format: functional; conditions: time 16-18 hrs

Compound	MIC [1] [µg/mL]	MIC [2] [µg/mL]	MIC [3] [µg/mL]	MIC [4] [µg/mL]	MIC [5] [µg/mL]	Activity [6]	MIC [7] [µg/mL]	MIC [8] [µg/mL]	Activity [9]	MIC [10] [µg/mL]	MIC [11] [µg/mL]	MIC [12] [µg/mL]	MIC [13] [µg/mL]	MIC [14] [µg/mL]	MIC [15] [µg/mL]	MIC [16] [µg/mL]	MIC [17] [µg/mL]
CC(C)=CCc1c(OC(C)C)cc(/C=C/c2ccc(F)cc2)c(C(=O)O)c1O	4	4	4	> 32	4	Toxic	> 32	2	Toxic	4	8	4	> 32	4	2	4	4
CCOc1cc(/C=C/c2ccc(F)cc2)c(C(=O)O)c(O)c1CC=C(C)C	4	4	4	> 32	4	Toxic	> 32	4	Toxic	8	4	2	> 32	4	2	4	4
CC(C)=CCc1c(OCCCC(F)(F)F)cc(/C=C/c2ccc(C(F)(F)F)cc2)c(C(=O)O)c1O	4	2	4	> 32	4	Toxic	> 32	2	Toxic	4	2	1	> 32	4	2	4	4
CC(C)=CCc1c(OCCC(F)(F)F)cc(/C=C/c2ccc(F)cc2)c(C(=O)O)c1O	4	4	4	> 32	4	Toxic	> 32	4	Toxic	4	2	4	> 32	4	4	4	4
CCCC(CC)Oc1cc(/C=C/c2ccc(F)cc2)c(C(=O)O)c(O)c1CC=C(C)C (stereo unspecified)	4	2	2	> 32	4	Toxic	> 32	2	Toxic	2	2	1	> 32	2	2	2	2
COc1cc(/C=C/c2ccccc2)c(C(=O)O)c(O)c1CC=C(C)C	8	8	8	> 32	8		> 32	16		8	16	16	> 32	8	16	16	8
NC[C@H]1O[C@H](O[C@H]2[C@H](O)[C@@H](O[C@H]3O[C@H](CO)[C@@H](O)[C@H](N)[C@H]3O)[C@H](N)C[C@@H]2N)[C@H](N)[C@@H](O)[C@@H]1O [BEKANAMYCIN]												128					
CC1(C)S[C@@H]2[C@H](NC(=O)[C@H](N)c3ccccc3)C(=O)N2[C@H]1C(=O)O [AMPICILLIN]	> 128	4	> 128	> 32	> 128		> 32	> 128		> 128	> 128	> 128	> 32	> 128	> 128	> 128	> 128
